# Laboratory results taken from ChEMBL document CHEMBL6114976, “Structure-based design, synthesis and biological evaluation of a novel d-amino acid-containing peptide inhibitor by blocking the RAD51-BRCA2 interaction for the treatment of kidney cancer” (Eur J Med Chem, 2025).
# The source made the active and inactive calls. The rule behind the calls is not given here. Residues, ends and D or L forms follow the SMILES beside them.
# Columns and labels:
# [1] = target: T1, DNA repair protein RAD51 homolog 1 (Homo sapiens, UniProt Q06609); assay: Binding affinity to RAD51 (unknown origin) assessed as dissociation constant by MST assay
# T1 sequence (Q06609 whole entry): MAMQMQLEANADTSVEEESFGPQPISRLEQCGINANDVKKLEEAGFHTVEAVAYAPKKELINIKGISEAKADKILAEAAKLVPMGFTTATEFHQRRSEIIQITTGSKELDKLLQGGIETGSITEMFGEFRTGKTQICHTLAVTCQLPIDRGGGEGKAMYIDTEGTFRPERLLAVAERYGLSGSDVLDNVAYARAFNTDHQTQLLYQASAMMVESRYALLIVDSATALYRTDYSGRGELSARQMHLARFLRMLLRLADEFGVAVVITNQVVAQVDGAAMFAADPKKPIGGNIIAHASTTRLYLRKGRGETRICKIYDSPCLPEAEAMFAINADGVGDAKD
# [2] = Stability in mouse serum assessed as compound remaining at 5 uM measured after 180 mins by HPLC analysis; assay type: ADME, cell-free; conditions: 3 h
# [3] = test system: 786-0; assay: cells; conditions: Homo sapiens, 786-0, 72 h
# Description: Inhibition of cell proliferation of human 786-0 cells incubated for 72 hrs by MTT assay
# [4] = test system: 786-0; assay: Inhibition of cell proliferation of human 786-0 cells at 3 uM incubated for 72 hrs by MTT assay relative to control; assay type: functional
# [5] = test system: 786-0; assay: Antitumor activity against human 786-0 cells xenografted in BALB/c nude mouse assessed as reduction in tumor volume at 10 to 20 mg/kg, iv measured for 21 days; assay type: functional, organism-based; conditions: dose 10-20 mg/kg, time 21.0 day
# [6] = Inhibition of cell proliferation of human MCF-10A cells incubated for 72 hrs by MTT assay; assay type: toxicity, cell-based
# [7] = Inhibition of cell proliferation of human GP2-293 cells incubated for 72 hrs by MTT assay; assay type: toxicity, cell-based
# [8] = target: T1, DNA repair protein RAD51 homolog 1; assay: Inhibition of RAD51 (unknown origin) in presence of AlexaFluor 488-labeled BRC4 by fluorescence polarization competitive binding assay
# [9] = test system: A498; assay: Inhibition of cell proliferation of human A498 cells incubated for 72 hrs by MTT assay; assay type: functional, cell-based; conditions: A498, 72 h
# [10] = Inhibition of cell proliferation of human SNU-349 cells incubated for 72 hrs by MTT assay; assay type: functional, cell-based; conditions: SNU-349, 72 h
# [11] = test system: ACHN; assay: Inhibition of cell proliferation of human ACHN cells incubated for 72 hrs by MTT assay; assay type: functional, cell-based
# [12] = test system: CAKI-1; assay: Inhibition of cell proliferation of human CAKI-1 cells incubated for 72 hrs by MTT assay; assay type: functional, cell-based; conditions: CAKI-1, 72 h
# [13] = Inhibition of cell proliferation of human Hkb20 cells incubated for 72 hrs by MTT assay; assay type: toxicity, cell-based
# [14] = Inhibition of cell proliferation of human HK-2 cells incubated for 72 hrs by MTT assay; assay type: toxicity, cell-based
# [15] = test system: 786-0; assay: Inhibition of HR repair in human 786-0 cells transfected with plasmids upto 640 nM incubated for 5 hrs by real-time PCR assay; assay type: functional, cell-based
# [16] = test system: 786-0; assay: Induction of DNA damage in human 786-0 cells assessed as increase in gamma-H2AX mRNA level incubated for 48 hrs by qPCR analysis; assay type: functional, cell-based; conditions: dose 100-300 nM
# [17] = Stability in mouse serum assessed as compound remaining at 5 uM measured after 360 mins by HPLC analysis; assay type: ADME, cell-free; conditions: read-out: Stability
# [18] = test system: 786-0; assay: Antitumor activity against human 786-0 cells xenografted in BALB/c nude mouse assessed as reduction in tumor weight at 10 to 20 mg/kg, iv measured for 21 days; assay type: functional, organism-based; conditions: dose 10-20 mg/kg, time 21.0 day
# [19] = test system: 786-0; assay: Antitumor activity against human 786-0 cells xenografted in BALB/c nude mouse assessed as tumor growth inhibition administered intravenously measured for 21 days; assay type: functional, cell-based; conditions: dose 10-20 mg/kg, route iv, time 21.0 day
# [20] = Toxicity in BALB/c nude mouse xenografted with human 786-0 cells assessed as body weight change at 10 to 20 mg/kg, iv measured for 21 days; assay type: organism-based; conditions: in vivo, 504 h, dose 10-20 mg/kg, time 21 day
# [21] = Toxicity in BALB/c nude mouse xenografted with human 786-0 cells assessed as change in ALT level at 10 to 20 mg/kg, iv measured for 21 days; assay type: organism-based; conditions: in vivo, 504 h, dose 10-20 mg/kg, time 21 day
# [22] = Toxicity in BALB/c nude mouse xenografted with human 786-0 cells assessed as change in AST level at 10 to 20 mg/kg, iv measured for 21 days; assay type: organism-based; conditions: in vivo, 504 h, dose 10-20 mg/kg, time 21 day
# [23] = Toxicity in BALB/c nude mouse xenografted with human 786-0 cells assessed as change in BUN level at 10 to 20 mg/kg, iv measured for 21 days; assay type: organism-based; conditions: in vivo, 504 h, dose 10-20 mg/kg, time 21 day
# [24] = Toxicity in BALB/c nude mouse xenografted with human 786-0 cells assessed as change in CREA level at 10 to 20 mg/kg, iv measured for 21 days; assay type: organism-based; conditions: in vivo, 504 h, dose 10-20 mg/kg, time 21 day
# [25] = Half life in BALB/c mouse at 10 mg/kg, iv measured for 0.25 to 24 hrs by LC-MS/MS analysis; assay type: ADME, organism-based; conditions: in vivo, time 0.25-24 hrs
# [26] = Cmax in BALB/c mouse at 10 mg/kg, iv measured for 0.25 to 24 hrs by LC-MS/MS analysis; assay type: ADME, organism-based; conditions: in vivo, time 0.25-24 hrs
# [27] = Tmax in BALB/c mouse at 10 mg/kg, iv measured for 0.25 to 24 hrs by LC-MS/MS analysis; assay type: ADME, organism-based; conditions: in vivo, time 0.25-24 hrs
# [28] = AUC in BALB/c mouse at 10 mg/kg, iv measured for 0.25 to 24 hrs by LC-MS/MS analysis; assay type: ADME, organism-based; conditions: in vivo, time 0.25-24 hrs
compound,measurement,setting,value
CC[C@H](C)[C@H](NC(=O)[C@H](CCCCN)NC(=O)[C@@H](NC(=O)[C@H](CCCCN)NC(=O)[C@H](CCCCN)NC(=O)CNC(=O)[C@H](CO)NC(=O)[C@H](C)NC(=O)[C@@H](NC(=O)[C@H](Cc1c[nH]cn1)NC(=O)[C@H](Cc1ccccc1)NC(=O)CNC(=O)[C@H](CC(C)C)NC(=O)[C@H](CC(C)C)NC(C)=O)[C@@H](C)O)C(C)C)C(=O)N[C@@H](C)C(=O)N[C@@H](CCCCN)C(N)=O (Ac-LLGFHTASGKKVKIAK-NH2),Kd,[1],602 nM
same,Stability,[2],Unstable
same,IC50,[3],> 10000 nM
CC[C@](C)(NC(=O)[C@@H](NC(=O)[C@H](CC(C)C)NC(=O)[C@H](Cc1c[nH]c2ccccc12)NC(=O)[C@@H](CO)NC(C)=O)C(C)C)C(N)=O,Kd,[1],56.7 nM
same,inhibition at 3 µM,[4],> 60%
CC[C@](C)(NC(=O)[C@@H](NC(=O)[C@H](CC(C)C)NC(=O)[C@H](Cc1c[nH]c2ccccc12)NC(=O)[C@@H](CO)NC(C)=O)[C@@H](C)O)C(N)=O,Activity,[5],Active
same,IC50 at 72 h,[6],> 10 µM
same,IC50 at 72 h,[7],> 10 µM
same,Kd,[1],9.24 nM
same,IC50,[8],35 nM
same,IC50,[9],680 nM
same,IC50,[10],250 nM
same,IC50,[11],310 nM
same,IC50,[12],510 nM
same,IC50 at 72 h,[13],> 10 µM
same,IC50 at 72 h,[14],> 10 µM
same,inhibition at 3 µM,[4],> 90%
same,inhibition,[15],Dose-dependent-effect
same,Activity,[16],Dose-dependent-effect
same,"remaining at 6 h, 5 µM",[17],85%
same,Activity,[18],Active
same,Activity,[19],Dose-dependent-effect
same,Activity,[20],Non-toxic
same,Activity,[21],Non-toxic
same,Activity,[22],Non-toxic
same,Activity,[23],Non-toxic
same,Activity,[24],Non-toxic
same,half-life,[25],443 min
same,Cmax,[26],6470 ng/mL
same,Tmax,[27],17.4 min
same,AUC,[28],13000 ng·h/mL
same,IC50,[3],90 nM
CC[C@](C)(NC(=O)[C@@H](NC(=O)[C@H](C)NC(=O)[C@H](Cc1c[nH]c2ccccc12)NC(=O)[C@@H](CO)NC(C)=O)[C@@H](C)O)C(N)=O,Kd,[1],40.1 nM
same,inhibition at 3 µM,[4],> 60%
CC(=O)N[C@H](CO)C(=O)N[C@@H](Cc1ccccc1)C(=O)N[C@@H](CC(C)C)C(=O)N[C@H](C(=O)N[C@@H](C)C(N)=O)C(C)C,Kd,[1],145 nM
same,inhibition at 3 µM,[4],> 60%
CC[C@](C)(NC(=O)[C@@H](NC(=O)[C@H](CC(C)C)NC(=O)[C@H](Cc1c[nH]c2ccccc12)NC(=O)[C@H](CO)NC(C)=O)[C@@H](C)O)C(N)=O,Kd,[1],236 nM
same,inhibition at 3 µM,[4],> 60%
CC[C@](C)(NC(=O)[C@@H](NC(=O)[C@H](CC(C)C)NC(=O)[C@H](Cc1ccccc1)NC(=O)[C@@H](CO)NC(C)=O)[C@@H](C)O)C(N)=O,Kd,[1],128 nM
same,inhibition at 3 µM,[4],> 60%
